Like-named read-outs stand apart in the source and are kept apart here.
How the values were obtained:
[1] = molecular target: T1, CYP3A4 (Homo sapiens, UniProt P08684); parameters: purchased Thermo Fisher Scientific (Waltham, MA, USA); host or cells: baculosomes (baculovirus-infected insect cell microsomes); details: cited from earlier work; for inhibition of CYP3A4: 1 µM concentration, testosterone as marker substrate; for IC50 / Ki / kinact / kinact/Ki: testosterone (TSN) as marker substrate
[2] = molecular target: T1, CYP3A4; test: CYP3A4 inhibition and inactivation kinetics, nifedipine oxidation as marker reaction
Experimental: Enzyme incubations were performed in triplicate, with mechanical stirring in a water bath at 37 °C. Aliquots of flavonoids with a final concentration of 1 μM were dissolved in methanol, transferred to glass tubes, and evaporated to dryness, except in control samples without the inhibitor (flavonoid). After the evaporation of the solvent, an incubation mixture was prepared to a volume of 100 μL, consisting of 5 pmol CYP3A4 enzyme, 50 mM potassium phosphate buffer (pH 7.4), and ultrapure water. An NADPH generating system composed of 0.1 M G6P: 10 mg/mL NADP^+: 1000 IU/mL G6PDH = 50:25:1 (v/v/v) was prepared immediately before use. This generating system contains glucose-6-phosphate dehydrogenase that regenerates NADP^+ into NADPH, keeping the concentration of the cytochrome P450 coenzyme (NADPH) constant in the incubation. The addition of the generating system (15% of the volume in the final incubation, v/v) started the reaction. Nifedipine was used to test out the residual enzyme activity at a final concentration of 200 μM. The reaction was stopped using 1 mL of ice-cold 1% solution of formic acid in dichloromethane. The samples were mixed, then centrifuged for 10 min on 1900g (Rotofix 32, Westfalia, Germany). After centrifugation, two layers were formed (water and organic layer). 850 µL of the organic layer was transferred to cuvettes and evaporated. The analyte was then dissolved in 30 µL of methanol. An Agilent Zorbax SB C18 column (4.6 × 250 mm, 3 μm, Agilent Technologies, Santa Clara, CA, USA) was used to analyze the samples by HPLC. The mobile phase was composed of methanol and water in a ratio of 64:36. The analysis was isocratic. The flow was set at 1.0 mL min^−1. The injection volume was set at 10 µL. Nifedipine was used as a marker substrate. The reaction observed was the oxidation of nifedipine. Chromatograms were recorded at 254 nm. The duration of the analysis was set at 25 min. The retention time of nifedipine is 7.1 min and that of oxidized nifedipine is 10.8 min [42]. […] For all the flavonoids, half maximal inhibitory concentration (IC50), constant of inhibition (Ki), constant of inactivation speed (kinact), and inactivation efficacy (kinact/Ki) were determined.
A one-sided t-test would be used to assess the statistical significance in the differences between samples and controls, based on measurements of residual activity. A nonlinear equation was used to calculate the IC50 value. The Michaelis-Menten equation was used to determine the inactivation constant and the inactivation rate of the inhibitor. Statistical processing and graph preparations were done using Program R (The R Project for Statistical Computing, Vienna, Austria) and Microsoft Excel (Microsoft, Redmond, WA, USA).

[3] = combination treatment of apigenin and paclitaxel in vivo; cited from earlier work
[4] = molecular target: T1, CYP3A4; test: Pseudo-irreversible inhibition assay (incubation, dialysis with or without potassium hexacyanoferrate, testosterone marker); format: biochemical; parameters: purchased Thermo Fisher Scientific (Waltham, MA, USA); host or cells: baculosomes (baculovirus-infected insect cell microsomes); details: after incubation and dialysis (Figure 4)
Experimental: The aim of this assay is to test out the formation of covalent complexes with ferrous iron (Fe^2+), by assessing a recovery of enzyme activity after dialysis with or without the addition of an oxidant. Three types of experiments were performed for each flavonoid: incubation mixture without flavonoids (control), incubation mixture with flavonoid, and incubation mixture with flavonoid to which oxidant was added after incubation. Each incubation with the inhibitor was performed for 30 min using the same experimental settings as described above (Section 4.2.1). After incubation, the samples were transferred to dialysis cartridges. Aa oxidant—20 mM solution of potassium hexacyanoferrate was added to one of the incubations before dialysis. The cassettes (Slide-A-Lyzer Dialysis Cassettes, Thermo Fisher Scientific, Waltham, MA, USA) were immersed in 50 mM potassium phosphate buffer solution (pH 7.4) for 30 min (dialysis solution was exchanged three times). After dialysis, the samples were transferred from the cassette back to the glass tube, and the residual enzyme activity was assessed using testosterone as a marker substrate (200 μM final concentration). As the NADPH generating system was also dialyzed, it was again added to the incubations to initiate enzyme reaction. […] The samples were analyzed by HPLC.

[5] = parameters: method as in PMID 17093006; details: rats, chrysin 20–100 µM; cited from earlier work
[6] = parameters: method as in PMID 7937537; details: healthy volunteers; cited from earlier work
[7] = human, CYP3A4 enzyme, pH 7.4, probe nifedipine (200 µM), nifedipine oxidation
[8] = human, CYP3A4 enzyme, pH 7.4, probe nifedipine (200 µM), nifedipine oxidation, kinact/Ki (inactivation efficiency), nifedipine (NIF) as marker substrate, ratio of inactivation rate constant and inhibition constant
[9] = nifedipine (NIF) as marker substrate, ratio of inactivation rate constant and inhibition constant

T1 sequence (P08684 whole entry): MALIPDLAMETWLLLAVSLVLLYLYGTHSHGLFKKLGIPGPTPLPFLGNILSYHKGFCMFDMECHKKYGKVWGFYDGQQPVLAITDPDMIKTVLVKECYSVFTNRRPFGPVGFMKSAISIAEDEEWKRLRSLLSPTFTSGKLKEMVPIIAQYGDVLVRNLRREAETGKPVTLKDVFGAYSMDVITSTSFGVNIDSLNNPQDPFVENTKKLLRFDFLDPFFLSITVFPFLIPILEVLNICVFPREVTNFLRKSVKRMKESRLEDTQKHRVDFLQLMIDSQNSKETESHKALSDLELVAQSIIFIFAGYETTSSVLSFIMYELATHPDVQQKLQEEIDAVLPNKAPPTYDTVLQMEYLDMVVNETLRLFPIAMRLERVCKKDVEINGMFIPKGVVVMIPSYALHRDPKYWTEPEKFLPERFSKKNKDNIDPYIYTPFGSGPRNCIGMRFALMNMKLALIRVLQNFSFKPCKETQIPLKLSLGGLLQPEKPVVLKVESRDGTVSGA

For `COc1ccc(-c2cc(=O)c3c(O)cc(O)cc3o2)cc1` [acacetin], the “inhibition of CYP3A4” value [1] is given as “statistically significant inhibition”, the IC50 [1] is given as 10.9 ± 0.3 µM and the Ki [1] is given as 6 ± 3 µM. For the same compound, the kinact [1] was 0.036 ± 0.006 min⁻¹, the kinact/Ki [1] was 100 M⁻¹ s⁻¹ and the IC50 [2] was 7.5 ± 2.7 µM. The Ki [2] was 12.1 ± 5.6 µM, the kinact [2, 7] was 0.00167 s⁻¹ and the kinact/KI [2, 8] was roughly 167 M⁻¹ s⁻¹. For the same compound, the “kinact/Ki (inactivation efficiency)” value [2, 9] was 130 M⁻¹ s⁻¹.
For `O=c1cc(-c2ccc(O)cc2)oc2cc(O)cc(O)c12` [apigenin], the “oral bioavailability of paclitaxel” value [3] is given as “increase in oral bioavailability of paclitaxel” and the “inhibition of CYP3A4” value [1] is given as “statistically significant inhibition”.
For `O=c1cc(-c2ccccc2)oc2cc(O)cc(O)c12` [chrysin, 5,7-dihydroxy-flavone], the “inhibition of CYP3A4” value [1] is given as “statistically significant inhibition”, the IC50 [1] is given as 0.6 ± 0.5 µM and the Ki [1] is given as 0.6 ± 0.3 µM. For the same compound, the kinact [1] was 0.065 ± 0.005 min⁻¹, the kinact/Ki [1] was 1800 M⁻¹ s⁻¹ and the IC50 [2] was 2.5 ± 0.6 µM. For the same compound, the Ki [2] was 2.4 ± 1 µM, the kinact ([2]; human, pH 7.4) was 0.00117 s⁻¹ and the “kinact/Ki (inactivation efficiency)” value ([2]; human, pH 7.4) was 483 M⁻¹ s⁻¹. The kinact/KI ([2]; human, pH 7.4, kinact/Ki (inactivation efficiency)) was 500 M⁻¹ s⁻¹, the “reduction of enzyme activity” value [4] was “approximately 99%” and the “AUC and peak serum concentration (Cmax) of nitrofurantoin” value [5] was “significantly increased”.
In the case of `CC[C@H]1OC(=O)[C@H](C)[C@@H](O[C@H]2C[C@@](C)(OC)[C@@H](O)[C@H](C)O2)[C@H](C)[C@@H](O[C@@H]2O[C@H](C)C[C@H](N(C)C)[C@H]2O)[C@](C)(O)C[C@@H](C)C(=O)[C@H](C)[C@@H](O)[C@]1(C)O` [erythromycin], the “increase in AUC of cerivastatin” value [6] is given as 21%.
For `O=C1CC(c2ccccc2)Oc2cc(O)cc(O)c21` (centres unmarked) [pinocembrin, 5,7-dihydroxy-flavanone], the “inhibition of CYP3A4” value [1] is listed as “statistically significant inhibition”, the IC50 [1] is listed as 5 ± 0.6 µM and the Ki [1] is listed as 1.2 ± 0.3 µM. For the same compound, the kinact [1] was 0.018 ± 0.001 min⁻¹, the kinact/Ki [1] was 250 M⁻¹ s⁻¹ and the IC50 [2] was 4.3 ± 1.1 µM. For the same compound, the Ki [2] was 5.1 ± 1.6 µM, the kinact [2, 7] was 0.000667 s⁻¹ and the kinact/KI [2, 8] was roughly 167 M⁻¹ s⁻¹. The “kinact/Ki (inactivation efficiency)” value [2, 9] was 130 M⁻¹ s⁻¹.
